Test results reported in patent US20160002247A1, “8-SUBSTITUTED IMIDAZOPYRIMIDINONE DERIVATIVE HAVING AUTOTAXIN INHIBITORY ACTIVITY” (THE UNIVERSITY OF TOKYO, priority 2013, published 2016).

Key:
Human autotaxin enzyme [1] = molecular target: T1, Human autotaxin enzyme (Homo sapiens, UniProt Q13822); assay: Evaluation of autotaxin inhibitor, Method B (Test Example 2): TG-mTMP fluorescence; assay type: biochemical
T1 construct: purchased R&D System
Method: (Method B) Evaluation of Autotaxin Inhibitor
Solution A containing 25 mM Tris-HCl buffer (pH7.5), 100 mM NaCl, 5 mM MgCl2 and 0.1% BSA was prepared. Human autotaxin enzyme (purchased from R&D System) was diluted with Solution A, and 5 μL of which was added to a solution of test compound in DMSO. Furthermore, 5 μl of 0.5 μM TG-mTMP in Solution A was added and allowed to react at room temperature for 2 hours. 5 μl of 150 mM EDTA in Solution A was added to quench the reaction, and the fluorescent dye TokyoGreen, which was produced by the reaction, was detected. The fluorescence was detected using ViewLux (PerkinElmer, Inc.) with an excitation wavelength of 480 nm and a fluorescence wavelength of 540 nm.

Human autotaxin enzyme [2] = molecular target: T1, Human autotaxin enzyme; assay: Evaluation of autotaxin inhibitor, Method C (Test Example 3): 18:0 Lyso PC, choline assay, Resorufin fluorescence; assay type: biochemical; settings: human autotaxin, 18:0 Lyso PC substrate
How it was run: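 Choline-coupled fluorescence readout (20 min, resorufin at 531/598 nm) followed a 2 h room-temperature reaction of human autotaxin with 18:0 Lyso PC substrate (added as 200 μM solution) in pH 7.5 Tris buffer containing MgCl2 and Triton X-100. Percent inhibition scaled to no-compound (0%) and no-enzyme (100%) wells and plotted versus concentration.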

[3] = Assay Method B (Test Example 2), human autotaxin, read-out: Inhibitory Activity (autotaxin enzyme inhibitory activity, IC50 class)
[4] = Assay Method: Method B (Test Example 2), read-out: Inhibitory Activity (Enzyme Inhibitory Activity, IC50)
[5] = Assay Method C (Test Example 3), read-out: Inhibitory Activity (autotaxin enzyme inhibitory activity, IC50 class)
[6] = Assay Method C, read-out: Inhibitory Activity

SMILES	IC50 (Human autotaxin enzyme [1]; [3])	other results
COC(=O)Cc1ccc(Cn2c(C)cc(=O)n3cc(-c4ccc(Cl)cc4)nc23)cc1 [Compound 112]	10 to 100 nM	
CCCCCn1c(C)cc(=O)n2cc(-c3ccc(Oc4ccccc4)cc3)nc12 [Compound 141]	10 to 100 nM	
CCCCCn1c(C)cc(=O)n2c(Br)c(-c3ccc(Cl)cc3)nc12 [Compound 171]	10 to 100 nM	
CCCCCn1c(N(C)Cc2ccc(C(=O)OC)cc2)cc(=O)n2cc(-c3ccc(Cl)cc3)nc12 [Compound 195]	< 10 nM	
Cc1cc(=O)n2cc(-c3ccc(Cl)cc3)nc2n1C(C)c1cccc(F)c1 (stereo not drawn) [Compound 100]	10 to 100 nM	
CCCCCn1c(N2C[C@H]3CC[C@@H](C2)O3)cc(=O)n2cc(-c3ccc(Cl)cc3)nc12 [Compound 239]	10 to 100 nM	
CCCCCn1c(CO)cc(=O)n2cc(-c3ccc(Cl)cc3)nc12 [Compound 367]	< 10 nM	
CCCCCn1c(OC23CCC(CC2)CC3)cc(=O)n2cc(-c3ccc(Cl)cc3)nc12 [Compound 267]	100 to 1000 nM	
CCC(=O)Cn1c(C)cc(=O)n2cc(-c3ccc(Cl)cc3)nc12 [Compound 28]		IC50 (Human autotaxin enzyme [1]; [4]): 10 to 100 nM
CCCCCn1c(-c2ccc(COC)cc2)cc(=O)n2cc(-c3ccc(Cl)cc3)nc12 [Compound 404]	< 10 nM	
CCCCCn1c(-c2ccc(O)cc2)cc(=O)n2cc(-c3ccc(Cl)cc3)nc12 [Compound 411]	< 10 nM	
CCCCCn1c(-c2ccc(N(C)C)cc2)cc(=O)n2cc(-c3ccc(Cl)cc3)nc12 [Compound 399]	10 to 100 nM	
C#CCCCCCCCCCOc1cc(=O)n2cc(-c3ccc(Cl)cc3)nc2n1CCCCC [Compound 271]	> 1000 nM	
Cc1cc(=O)n2cc(-c3ccc(Cl)cc3)nc2n1Cc1ccc(C(F)(F)F)cc1 [Compound 116]	100 to 1000 nM	
CCCCCn1c(COCc2ccccc2)cc(=O)n2cc(-c3ccc(Cl)cc3)nc12 [Compound 371]	10 to 100 nM	
CCCCCn1c(Oc2ccccn2)cc(=O)n2cc(-c3ccc(Cl)cc3)nc12 [Compound 273]	100 to 1000 nM	
CCCCCn1c(C)c(CCOCC)c(=O)n2cc(-c3ccc(Cl)cc3)nc12 [Compound 216]	> 1000 nM	
CCCc1cn2c(=O)ccn(CCCc3ccc(Cl)cc3)c2n1 [Compound 129]	> 1000 nM	
CCCCCOC(=O)Cc1c(C)n(CCCCC)c2nc(-c3ccc(Cl)cc3)cn2c1=O [Compound 215]	< 10 nM	
CCCCCn1c(C)c(CCO)c(=O)n2cc(-c3cccc(Cl)c3)nc12 [Compound 213]	100 to 1000 nM	
N#CCCCCn1c(-c2ccc(C(N)=O)cc2)cc(=O)n2cc(-c3ccc(C#N)cc3)nc12 [Compound 385]	< 10 nM	
CCCCCn1c(C)c(C(=O)O)c(=O)n2cc(-c3ccc(Cl)cc3)nc12 [Compound 185]	100 to 1000 nM	

SMILES	IC50 (Human autotaxin enzyme [1]; [3])	other results
CCCCCn1c(C)c(Cc2ccccc2)c(=O)n2cc(-c3cccc(Cl)c3)nc12 [Compound 211]	> 1000 nM	
CCCCCn1c(C)cc(=O)n2cc(-c3ccc4c(c3)CCC4)nc12 [Compound 150]	100 to 1000 nM	
Cc1cc(=O)n2cc(-c3ccc(Cl)cc3)nc2n1Cc1ccc(OCCN2CCCC2)cc1 [Compound 85]		IC50 (Human autotaxin enzyme [1]; [4]): < 10 nM
Cc1cc(=O)n2cc(-c3ccc(Cl)cc3)nc2n1Cc1ccccn1 [Compound 114]	10 to 100 nM	
CCCCCn1c(N(C)CCC)cc(=O)n2cc(-c3ccc(Cl)cc3)nc12 [Compound 230]	< 10 nM	
Cc1cc(=O)n2cc(-c3ccc(Cl)cc3)nc2n1CC(=O)C1CCCCC1 [Compound 69]		IC50 (Human autotaxin enzyme [1]; [4]): > 1000 nM
Cc1cc(=O)n2cc(-c3ccc(Cl)cc3)nc2n1CC1CCC1 [Compound 77]		IC50 (Human autotaxin enzyme [1]; [4]): 10 to 100 nM
CCCCCn1c(-c2ccc(NCC(C)C)nc2)cc(=O)n2cc(-c3ccc(Cl)cc3)nc12 [Compound 419]	< 10 nM	
Cc1cc(=O)n2cc(-c3ccc(Cl)cc3)nc2n1Cc1ccc(-c2ncccn2)cc1 [Compound 91]	10 to 100 nM	
CCCCCn1c(C)cc(=O)n2cc(-c3ccc(Cl)cc3Cl)nc12 [Compound 158]	10 to 100 nM	
CCCCCn1c(-c2ccc(C#N)cc2)cc(=O)n2cc(-c3ccc(Cl)cc3)nc12 [Compound 400]	< 10 nM	
CCCCCn1c(C)c(C)c(=O)n2cc(-c3ccc(Cl)cc3)nc12 [Compound 208]	10 to 100 nM	
Cc1cc(=O)n2cc(-c3ccc(Cl)cc3)nc2n1Cc1ccc(Cl)cc1F [Compound 90]	10 to 100 nM	
Cc1cc(=O)n2cc(-c3ccc(Cl)cc3)nc2n1Cc1cccc(F)c1 [Compound 121]	10 to 100 nM	
Cc1cc(=O)n2cc(-c3ccc(Cl)cc3)nc2n1Cc1ccc(Br)cc1F [Compound 97]	10 to 100 nM	
CCCCCn1c(C)cc(=O)n2cc(-c3ccc(Br)cc3)nc12 [Compound 18]		IC50 (Human autotaxin enzyme [1]; [4]): < 10 nM
N#CCCCCn1c(NCc2ccc(C(=O)O)cc2)cc(=O)n2cc(-c3ccc(Cl)cc3)nc12 [Compound 286]	< 10 nM	
CCCCCn1c(C)c(CC(=O)NCC)c(=O)n2cc(-c3ccc(Cl)cc3)nc12 [Compound 181]	< 10 nM	
CCCCCn1c(NCCc2ccccc2)cc(=O)n2cc(-c3ccc(Cl)cc3)nc12 [Compound 251]	10 to 100 nM	
CCCCCn1c(N2C(C)CCC2C)cc(=O)n2cc(-c3ccc(Cl)cc3)nc12 (stereo not drawn) [Compound 255]	< 10 nM	
C/C=C/c1cc(=O)n2cc(-c3ccc(Cl)cc3)nc2n1CCCCC [Compound 414]	10 to 100 nM	
CCCCCn1c(C=O)cc(=O)n2cc(-c3ccc(Cl)cc3)nc12 [Compound 370]	< 10 nM	

SMILES	IC50 (Human autotaxin enzyme [1]; [3])	other results
Cc1cc(=O)n2cc(-c3ccc(Cl)cc3)nc2n1Cc1ccc(C(N)=O)cc1 [Compound 110]	10 to 100 nM	
CCCCCn1c(N2CCC(C)C2)cc(=O)n2cc(-c3ccc(Cl)cc3)nc12 (stereo not drawn) [Compound 257]	< 10 nM	
CCCCCn1c(N2CCCC2)cc(=O)n2cc(-c3ccc(Cl)cc3)nc12 [Compound 187]	10 to 100 nM	
Cc1cc(=O)n2cc(-c3ccc(Cl)cc3)nc2n1CC(=O)C1CC1 [Compound 50]		IC50 (Human autotaxin enzyme [1]; [4]): 100 to 1000 nM
CCCCCn1ccc(=O)n2cc(-c3ccc(Cl)cc3)nc12 [Compound 186]	10 to 100 nM	
N#CCCCCn1c(-c2ccc(C(=O)NCCN3CCOCC3)cc2)cc(=O)n2cc(-c3ccc(Cl)cc3)nc12 [Compound 380]	< 10 nM	
CCCCCn1c(/C=C/COC)cc(=O)n2cc(-c3ccc(Cl)cc3)nc12 [Compound 423]	10 to 100 nM	
Cc1cc(=O)n2cc(-c3ccc(Cl)cc3)nc2n1CCCC(F)(F)F [Compound 59]		IC50 (Human autotaxin enzyme [1]; [4]): 10 to 100 nM
CCCCCn1c(N2C[C@@H](F)C[C@H]2C(=O)NC(C)(C)CC(=O)OCC)cc(=O)n2cc(-c3ccc(Cl)cc3)nc12 [Compound 596]		IC50 (Human autotaxin enzyme [2]; [5]): 10 to 100 nM
CCCCCn1c(N2CCC[C@H]2C(=O)N[C@H]2CCCCNC2=O)cc(=O)n2cc(-c3ccc(Cl)cc3)nc12 [Compound 707]		IC50 (Human autotaxin enzyme [2]; [5]): 100 to 1000 nM
CCCCCn1c(N2CCC[C@H](C(=O)NCCC(=O)O)C2)cc(=O)n2cc(-c3ccc(Cl)cc3)nc12 [Compound 616]		IC50 (Human autotaxin enzyme [2]; [5]): < 10 nM
CCCCCn1c(N2CCC[C@H]2C(=O)N2CCO[C@@H](C(=O)O)C2)cc(=O)n2cc(-c3ccc(Cl)cc3)nc12 [Compound 681]		IC50 (Human autotaxin enzyme [2]; [5]): < 10 nM
CCCCCn1c(N2CCC[C@@H]2CC(=O)NCC(=O)O)cc(=O)n2cc(-c3ccc(Cl)cc3)nc12 [Compound 634]		IC50 (Human autotaxin enzyme [2]; [5]): 100 to 1000 nM
CCCCCn1c(N2CCC[C@H](C(=O)O)C2)cc(=O)n2cc(-c3ccc(Cl)cc3)nc12 [Compound 600]		IC50 (Human autotaxin enzyme [2]; [5]): < 10 nM
CCCCCn1c(N2CCCC[C@H]2C(=O)O)cc(=O)n2cc(-c3ccc(Cl)cc3)nc12 [Compound 604]		IC50 (Human autotaxin enzyme [2]; [5]): 100 to 1000 nM
CCCCCn1c(N2CCC(CCc3ccccc3)C2)cc(=O)n2cc(-c3ccc(Cl)cc3)nc12 (stereo not drawn) [Compound 322]		IC50 (Human autotaxin enzyme [2]; [5]): > 1000 nM
CCCCCn1c(-c2ccc(C(=O)NCCF)cc2)cc(=O)n2cc(-c3ccc(Cl)cc3)nc12 [Compound 475]		IC50 (Human autotaxin enzyme [2]; [5]): 10 to 100 nM
CCCCCn1c(OC2CN(CC(=O)O)C2)cc(=O)n2cc(-c3ccc(Cl)cc3)nc12 [Compound 577]		IC50 (Human autotaxin enzyme [2]; [5]): < 10 nM
CCCCCn1c(N2CC[C@@H](C(=O)O)C2)cc(=O)n2cc(-c3ccc(Cl)cc3)nc12 [Compound 669]		IC50 (Human autotaxin enzyme [2]; [5]): 10 to 100 nM
CCCCCn1cc(Cc2cccc(C(=O)O)c2)c(=O)n2cc(-c3ccc(Cl)cc3)nc12 [Compound 820]		IC50 (Human autotaxin enzyme [2]; [6]): 10 to 100 nM
CCCCCn1c(-c2ccc(NC(C)=O)cc2)cc(=O)n2cc(-c3ccc(Cl)cc3)nc12 [Compound 434]		IC50 (Human autotaxin enzyme [2]; [5]): 100 to 1000 nM
CS(=O)(=O)CCOCCNC(=O)Cc1cn(CCCC(F)(F)F)c2nc(-c3ccc(Cl)cc3)cn2c1=O [Compound 864]		IC50 (Human autotaxin enzyme [2]; [6]): > 1000 nM
